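Tested at 5 concentrations; 48 h exposure; 96-well plates; endpoints linearly interpolated, else capped at highest concentration. TGI is the concentration that stops growth completely.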 Where a SMILES comes first, the peptide text is derived from it. [ ]: non-standard residue; d: D form. The star is where a group is joined. ξ: configuration not given here. ξD = NC(CC(=O)O)C(=O)O; Ac3c = NC1(C(=O)O)CC1; Boc = CC(C)(C)OC(=O)*; OtBu = CC(C)(C)O*

Assay in all cases: inhibition of tumour cell growth, NCI panel, 48 h
In assay [1] the test system is HT29 colon.
For assay [2], the system named is NCI-H460 lung.
The subject of assay [3] is UACC-62 melanoma.
In assay [4] the test system is 786-0 renal.
The test system of assay [5] is NCI-H522 lung.
Assay [6] deals with HOP-92 NSCLC.
The subject of assay [7] is KM12 colon.
Assay [8] concerns UACC-257 melanoma.
The subject of assay [9] is SW-620 colon.
Assay [10] relates to HCT-15 colon.
Assay [11] has as its system SR leukemia.

For the compound `CSCCCNC(=O)c1csc(-c2csc(CCNC(=O)CNC(=O)CNC(=O)CNC(=O)OC(C)(C)C)n2)n1`, the TGI in assay [1], in assay [2], in [3], in assay [4], in assay [5] and in assay [6] was more than 100 µM in each case. Besides, the TGI in assay [7], in [8], in [9] and in [10] was more than 100 µM throughout.

In the case of `Cc1cc(C)c2c(=N)c3ccccc3n(CCCCCCO)c2n1`, the TGI was 3.93 µM in assay [1]; 3.62 µM in assay [2]; 8.89 µM in assay [3]; 9.53 µM in [4]; 3.14 µM in assay [5]; 16 µM in assay [6]. Moreover, the TGI is 13.5 µM in [7], 15.8 µM in assay [8], more than 36.1 µM in [9] and 9.69 µM in assay [10].

In the case of `COC(=O)/C=C/c1cc(OC)c2oc(-c3ccc(OC)c(OC)c3)c(C(=O)OC)c2c1`, the TGI in assay [1], in assay [2], in assay [3], in [4], in assay [11] and in assay [6] was more than 100 µM each time. Besides, the TGI in assay [7], in assay [8], in assay [9] and in [10] was more than 100 µM in each case.

As to `CC1=C[C@@H](C)C[C@]2(C)CC[C@H](O2)[C@]23CC[C@](C)(C[C@H](O2)[C@@H]2O[C@@](C)(CC2=O)[C@@H](O)[C@H]2CC[C@@]4(CCC[C@@H](O4)[C@H](C)C(=O)O[C@H]4C[C@H]([C@]5(O)OCC[C@H](C)[C@@H]5O)O[C@H]4C=C1)O2)O3`, the TGI in [1] was more than 10 µM; in [2], more than 10 µM; in [4], 0.181 µM; in assay [11] it was more than 10 µM; in [5], more than 10 µM; in assay [6], 0.00517 µM. Moreover, the TGI in assay [7], in assay [9] and in assay [10] was more than 10 µM each time.

As for `N#CC1(c2ccccc2)CCN(C2(c3ccccc3)CCCCC2)CC1`, the TGI in [1], in assay [3], in assay [4], in assay [11], in [7] and in assay [8] was more than 100 µM each time. Besides, the TGI in assay [9] and in [10] was more than 100 µM throughout.

Take `O=S1(=O)C(c2ccccc2)=C(O)c2ccccc21`: the TGI in assay [1], in assay [2], in assay [3], in assay [4], in [5] and in assay [6] was more than 100 µM in each case. Further, the TGI in [7], in assay [8], in assay [9] and in assay [10] was more than 100 µM throughout.

As to `Cc1ccc(N=C2SC(c3ccc(C)cc3)(c3ccc(C)cc3)c3ccccc32)cc1`, the TGI in assay [1], in assay [2], in [3], in assay [4], in assay [5] and in assay [6] was more than 100 µM in each case. The TGI in assay [7], in assay [8], in assay [9] and in assay [10] was more than 100 µM in each case.

`CC(=O)C12C[C@](C#N)(N3CCCCCC3)C1C=Cc1ccccc12` (stereo partly specified): the TGI in assay [1], in [2], in [3], in assay [4], in [11] and in assay [5] was more than 100 µM throughout. Besides, the TGI in assay [7], in assay [8], in assay [9] and in assay [10] was more than 100 µM throughout.

For the compound `COc1cc(/C=C2\Cc3cc(OC)c(OC)cc3C2=O)cc(OC)c1`, the TGI was more than 100 µM in assay [1]; 74.7 µM in assay [2]; more than 89.4 µM in [3]; more than 56.6 µM in assay [4]; more than 100 µM in [5]; more than 57.5 µM in assay [6]. The TGI in assay [7], in assay [8], in assay [9] and in [10] was more than 100 µM throughout.

As for `COC(=O)C1(NC(=O)C(CC(=O)OC(C)(C)C)NC(=O)OC(C)(C)C)CC1` (stereo unspecified) (Boc-[ξD](OtBu)-[Ac3c]-OMe), the TGI in [1], in [2], in assay [3], in assay [4], in [5] and in assay [7] was more than 100 µM each time. Besides, the TGI in assay [8], in assay [9] and in assay [10] was more than 100 µM in each case.

Regarding `CCN1CCCC(Nc2cc(C)nc(/N=C(/N)Nc3ccc(Cl)c(Cl)c3)n2)C1` (stereo unspecified), the TGI was 15.7 µM in assay [1]; 2.93 µM in assay [2]; 3.31 µM in assay [3]; 2.95 µM in assay [4]; 2.88 µM in assay [11]; 2.61 µM in assay [5]. The figures for the TGI in [6], in [7] and in assay [10] were 3.33 µM, 3.46 µM and 3.7 µM, respectively.

As to `CCCCc1ccc(-n2sc3ncccc3c2=O)cc1`, the TGI in assay [1] worked out at 33.1 µM; in [2] it was 26 µM; in [3], 43.9 µM; in assay [4], 25.2 µM; in [11] it was 60.4 µM; in assay [5] it was 8.4 µM. In addition, the TGI in assay [7] stood at 32.5 µM; in assay [8] it was 43.7 µM; in assay [9], 72.1 µM; in assay [10], 19.9 µM.

For the compound `O=C(N/N=C/c1ccc(Cl)cc1)c1cc(I)cc(I)c1O`, the TGI in assay [1], in [4], in [11], in assay [6], in assay [7] and in assay [8] was more than 100 µM in each case. The TGI in [9] and in assay [10] was more than 100 µM in each case.

In the case of `COP(=O)(OC)C(NC=O)P(=O)(OC)OC`, the TGI in assay [1], in [2], in [3], in [4], in assay [11] and in [6] was more than 100 µM throughout. Moreover, the TGI in assay [9] and in assay [10] was more than 100 µM throughout.

For `C=C(Br)CNCC(=C)Br`, the TGI in [1], in assay [2], in [3], in [4], in assay [11] and in assay [5] was more than 100 µM in each case. Besides, the TGI in assay [7] was more than 100 µM; in [8], 98.6 µM; in assay [9], more than 100 µM; in assay [10], more than 100 µM.

As to `Oc1ccc(Cl)cc1C1=N/C(=N\C/N=C2\N=C(c3cc(Cl)ccc3O)CC(c3ccccc3)N2)NC(c2ccccc2)C1` (stereo unspecified), the TGI in [1], in assay [2], in [3], in assay [4], in assay [11] and in assay [6] was more than 100 µM in each case. Moreover, the TGI in assay [7], in assay [8], in assay [9] and in [10] was more than 100 µM in each case.

For `O=C1c2ccccc2-c2nc(-c3ccccc3)cc3c2c1nc1ccccc13`, the TGI in assay [1] is 25.9 µM; in assay [3], 9.7 µM; in assay [4], more than 100 µM; in assay [11] it was 11.9 µM; in assay [7] it was 50.3 µM; in [8], 30.6 µM. Further, the TGI is 36.6 µM in assay [9] and 28.5 µM in assay [10].

`CC(=O)c1ccc(N2CCN(C3=CC(=O)c4c(O)ccc(O)c4C3=O)CC2)cc1`: the TGI in assay [1] was more than 100 µM; in assay [2] it was more than 100 µM; in [3], more than 100 µM; in assay [4], more than 100 µM; in [11], more than 100 µM; in assay [6], 79.2 µM. Also, the TGI in [7] is more than 100 µM; in assay [8], more than 100 µM; in assay [9] it was more than 100 µM; in [10] it was 55.6 µM.

As to `COc1cc(OC)cc(-n2c(N)c(-c3nc4ccccc4n3C)c3ccc([N+](=O)[O-])cc3c2=O)c1`, the TGI is more than 100 µM in assay [1]; more than 100 µM in assay [2]; more than 100 µM in [3]; more than 100 µM in assay [4]; more than 100 µM in assay [5]; 68 µM in [6]. Also, the TGI in [7], in assay [8], in assay [9] and in assay [10] was more than 100 µM each time.

As for `Cc1ccnc(NC(=S)Nc2cccc(Cl)c2)c1`, the TGI is more than 100 µM in assay [1]; more than 100 µM in assay [2]; more than 100 µM in [3]; more than 100 µM in assay [4]; more than 100 µM in assay [11]; 9.85 µM in assay [5]. The TGI in [7], in assay [8], in assay [9] and in [10] was more than 100 µM throughout.

For the compound `N#CC12C(=O)N3C(=NC(c4ccccc4)NC3c3ccccc3)C1(C#N)C(c1ccccc1)NC1=C2CCCC1` (stereo unspecified), the TGI in assay [1], in assay [2], in [3], in [4], in [5] and in assay [6] was more than 100 µM throughout. The TGI in [7], in assay [8], in [9] and in [10] was more than 100 µM throughout.

As for `O=C1NC2CCCCC2N=C1/C(C(=O)c1ccccc1)=C(\O)c1ccccc1` (stereo unspecified), the TGI in assay [1] is more than 100 µM; in assay [2], more than 100 µM; in [3] it was 68.9 µM; in [4] it was more than 100 µM; in [11], 92.3 µM; in [5] it was 61.9 µM. The TGI in assay [7], in assay [8], in [9] and in [10] was more than 100 µM in each case.

On to `C[C@@H]1CC[C@@H](C)[C@](C)(CCc2ccoc2)C/C=C\C=C/1C(=O)O`, for which the TGI in assay [1], in [2], in assay [3], in assay [4], in assay [11] and in assay [6] was more than 50 µM throughout. Also, the TGI in assay [7], in [8], in assay [9] and in assay [10] was more than 50 µM in each case.

For `[N-]=[N+]=NC[C@H]1OCO[C@H](CN=[N+]=[N-])[C@H]2OCCOCCOc3ccccc3OCCOCCO[C@@H]21`, the TGI in assay [1], in assay [2], in assay [3], in assay [4], in [5] and in assay [7] was more than 100 µM each time. Further, the TGI in [8], in assay [9] and in assay [10] was more than 100 µM in each case.

On to `Oc1nc(N/N=C/c2ccccc2)[nH]c1/C=C1\C=Nc2ccccc21`, for which the TGI in assay [1], in assay [2], in assay [3], in [4], in [5] and in assay [6] was more than 100 µM in each case. In addition, the TGI in assay [7], in [8], in assay [9] and in assay [10] was more than 100 µM in each case.

With `CN(C)C(=O)C(F)(F)C(c1ccc(Br)cc1)C1C(=O)N(C)C(=O)N(C)C1=O` (stereo unspecified), the TGI in assay [2], in assay [3], in [4], in assay [6], in [7] and in [8] was more than 100 µM throughout. For the same compound, the TGI in assay [9] and in [10] was more than 100 µM in each case.

Consider `O/N=C1/C2CC3CC1(c1ccccc1)CC(/C3=N/O)/C2=N\O` (stereo unspecified), for which the TGI in [1], in assay [2], in assay [3], in assay [4], in assay [11] and in assay [5] was more than 100 µM throughout. Besides, the TGI in assay [7], in assay [8], in assay [9] and in assay [10] was more than 100 µM in each case.

For the origin of these results see PubChem BioAssay (NCI).
